From PubChem BioAssay (NCI)
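Results reflect a 48-hour exposure of cells in 96-well plates to compound at five concentrations. TGI denotes the concentration required for complete inhibition of growth.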

Assays:
Assay in all cases: NCI-60 cell line screen, 48 h
[1] = test system: A549 NSCLC
[2] = test system: U251 CNS
[3] = test system: SK-OV-3 ovarian
[4] = test system: IGROV1 ovarian
[5] = test system: OVCAR-3 ovarian
[6] = test system: SF-539 CNS
[7] = test system: SK-MEL-2 melanoma
[8] = test system: COLO 205 colon
[9] = test system: NCI/ADR-RES ovarian
[10] = test system: SF-268 CNS
[11] = test system: HT29 colon
[12] = test system: HCT-116 colon
[13] = test system: SN12C renal
[14] = test system: M14 melanoma
[15] = test system: 786-0 renal
[16] = test system: MALME-3M melanoma
[17] = test system: NCI-H226 lung
[18] = test system: T-47D breast
[19] = test system: MCF7 breast
[20] = test system: HOP-62 NSCLC
[21] = test system: NCI-H522 lung
[22] = test system: SNB-19 CNS
[23] = test system: UACC-257 melanoma
[24] = test system: CAKI-1 renal
[25] = test system: SW-620 colon
[26] = test system: SK-MEL-28 melanoma
[27] = test system: UO-31 renal
[28] = test system: BT-549 breast
[29] = test system: HOP-92 NSCLC
[30] = test system: NCI-H23 lung
[31] = test system: SF-295 CNS
[32] = test system: MDA-N
[33] = test system: SK-MEL-5 melanoma
[34] = test system: A498 renal
[35] = test system: UACC-62 melanoma
[36] = test system: HS 578T breast
[37] = test system: ACHN renal
[38] = test system: CCRF-CEM leukemia
[39] = test system: LOX IMVI melanoma
[40] = test system: SNB-75 CNS
[41] = test system: MOLT-4 leukemia
[42] = test system: PC-3 prostate
[43] = test system: RXF 393 renal
[44] = test system: OVCAR-4 ovarian
[45] = test system: HL-60(TB) leukemia
[46] = test system: DU-145 prostate
[47] = test system: HCC-2998 colon
[48] = test system: EKVX NSCLC
[49] = test system: NCI-H460 lung
[50] = test system: RPMI-8226 leukemia
[51] = test system: HCT-15 colon
[52] = test system: SR leukemia
[53] = test system: OVCAR-8 ovarian
[54] = test system: K-562 leukemia
[55] = test system: MDA-MB-231 breast
[56] = test system: TK-10 renal
[57] = test system: OVCAR-5 ovarian
[58] = test system: MDA-MB-435
[59] = test system: KM12 colon

Question: `Nc1ncc(Cl)c(NCC2(CO)CC(CCc3ccccc3)C2)n1` (centres undefined) was tested. Which TGI [1] did it give?
Answer: > 100 µM

Question: What about the TGI [2] of the same molecule?
Answer: > 100 µM

Question: What about the TGI [3] of the same molecule?
Answer: > 100 µM

Question: What about the TGI [4] of the same molecule?
Answer: > 100 µM

Question: What about the TGI [5] of the same molecule?
Answer: > 100 µM

Question: What about the TGI [6] of the same molecule?
Answer: > 100 µM

Question: And the TGI [7]?
Answer: > 100 µM

Question: And the TGI [8]?
Answer: > 100 µM

Question: What about the TGI [9] of the same molecule?
Answer: > 100 µM

Question: And the TGI [10]?
Answer: > 100 µM

Question: What about the TGI [11] of the same molecule?
Answer: > 100 µM

Question: And the TGI [12]?
Answer: > 100 µM

Question: And the TGI [13]?
Answer: > 100 µM

Question: And the TGI [14]?
Answer: > 100 µM

Question: And the TGI [15]?
Answer: > 100 µM

Question: What about the TGI [16] of the same molecule?
Answer: > 100 µM

Question: And the TGI [17]?
Answer: > 100 µM

Question: And the TGI [18]?
Answer: > 100 µM

Question: What about the TGI [19] of the same molecule?
Answer: > 100 µM

Question: And the TGI [20]?
Answer: > 100 µM

Question: What about the TGI [21] of the same molecule?
Answer: > 100 µM

Question: What about the TGI [22] of the same molecule?
Answer: > 100 µM

Question: And the TGI [23]?
Answer: > 100 µM

Question: What about the TGI [24] of the same molecule?
Answer: > 100 µM

Question: And the TGI [25]?
Answer: > 100 µM

Question: And the TGI [26]?
Answer: > 100 µM

Question: What about the TGI [27] of the same molecule?
Answer: > 100 µM

Question: And the TGI [28]?
Answer: > 100 µM

Question: What about the TGI [29] of the same molecule?
Answer: > 100 µM

Question: And the TGI [30]?
Answer: > 100 µM

Question: What about the TGI [31] of the same molecule?
Answer: > 100 µM

Question: What about the TGI [32] of the same molecule?
Answer: > 100 µM

Question: What about the TGI [33] of the same molecule?
Answer: > 100 µM

Question: What about the TGI [34] of the same molecule?
Answer: > 100 µM

Question: What about the TGI [35] of the same molecule?
Answer: > 100 µM

Question: And the TGI [36]?
Answer: > 100 µM

Question: And the TGI [37]?
Answer: > 100 µM

Question: What about the TGI [38] of the same molecule?
Answer: > 100 µM

Question: And the TGI [39]?
Answer: > 100 µM

Question: What about the TGI [40] of the same molecule?
Answer: 99.4 µM

Question: And the TGI [41]?
Answer: > 100 µM

Question: What about the TGI [42] of the same molecule?
Answer: > 100 µM

Question: What about the TGI [43] of the same molecule?
Answer: > 100 µM

Question: And the TGI [44]?
Answer: > 100 µM

Question: What about the TGI [45] of the same molecule?
Answer: > 100 µM

Question: And the TGI [46]?
Answer: > 100 µM

Question: What about the TGI [47] of the same molecule?
Answer: > 100 µM

Question: And the TGI [48]?
Answer: > 100 µM

Question: And the TGI [49]?
Answer: > 100 µM

Question: And the TGI [50]?
Answer: > 100 µM

Question: What about the TGI [51] of the same molecule?
Answer: > 100 µM

Question: What about the TGI [52] of the same molecule?
Answer: > 100 µM

Question: What about the TGI [53] of the same molecule?
Answer: > 100 µM

Question: And the TGI [54]?
Answer: > 100 µM

Question: What about the TGI [55] of the same molecule?
Answer: > 100 µM

Question: What about the TGI [56] of the same molecule?
Answer: > 100 µM

Question: What about the TGI [57] of the same molecule?
Answer: > 100 µM

Question: And the TGI [58]?
Answer: > 100 µM

Question: What about the TGI [59] of the same molecule?
Answer: > 100 µM
